Data taken from patent publication US11072616B2, “Cyclic peptides targeting alpha-4-beta-7 integrin” (Zealand Pharma A/S, priority 2015, dated 2021).

Key:
Aqueous solubility assay = type: physicochemical; conditions: PBS pH 7.4, 4 h, room temperature; for Determined concentration Mean: mean of 3, maximal concentration evaluated 200, 500 or 1000 μM; for Determined concentration Rep 1: replicate 1; for Determined concentration Rep 2: replicate 2; for Determined concentration Rep 3: replicate 3
Procedure: Solutions were incubated for four hours at room temperature and stirred at 600 rpm and run in triplicate. Centrifugation was performed for 15 minutes at 6000 rpm and solution concentration was determined using HPLC-UV (photodiode array detector acquiring between 220 nm, and 300 nm wavelengths).

integrin α4β7 = biological target: T1, integrin α4β7 (Homo sapiens, UniProt P13612+P26010); experiment: Integrin α4β7—MAdCAM-1 competition assay (ELISA); type: binding; conditions: ratio a4b1 ELISA IC50 / a4b7 ELISA IC50
T1 sequence (P13612 34-977 limits assumed): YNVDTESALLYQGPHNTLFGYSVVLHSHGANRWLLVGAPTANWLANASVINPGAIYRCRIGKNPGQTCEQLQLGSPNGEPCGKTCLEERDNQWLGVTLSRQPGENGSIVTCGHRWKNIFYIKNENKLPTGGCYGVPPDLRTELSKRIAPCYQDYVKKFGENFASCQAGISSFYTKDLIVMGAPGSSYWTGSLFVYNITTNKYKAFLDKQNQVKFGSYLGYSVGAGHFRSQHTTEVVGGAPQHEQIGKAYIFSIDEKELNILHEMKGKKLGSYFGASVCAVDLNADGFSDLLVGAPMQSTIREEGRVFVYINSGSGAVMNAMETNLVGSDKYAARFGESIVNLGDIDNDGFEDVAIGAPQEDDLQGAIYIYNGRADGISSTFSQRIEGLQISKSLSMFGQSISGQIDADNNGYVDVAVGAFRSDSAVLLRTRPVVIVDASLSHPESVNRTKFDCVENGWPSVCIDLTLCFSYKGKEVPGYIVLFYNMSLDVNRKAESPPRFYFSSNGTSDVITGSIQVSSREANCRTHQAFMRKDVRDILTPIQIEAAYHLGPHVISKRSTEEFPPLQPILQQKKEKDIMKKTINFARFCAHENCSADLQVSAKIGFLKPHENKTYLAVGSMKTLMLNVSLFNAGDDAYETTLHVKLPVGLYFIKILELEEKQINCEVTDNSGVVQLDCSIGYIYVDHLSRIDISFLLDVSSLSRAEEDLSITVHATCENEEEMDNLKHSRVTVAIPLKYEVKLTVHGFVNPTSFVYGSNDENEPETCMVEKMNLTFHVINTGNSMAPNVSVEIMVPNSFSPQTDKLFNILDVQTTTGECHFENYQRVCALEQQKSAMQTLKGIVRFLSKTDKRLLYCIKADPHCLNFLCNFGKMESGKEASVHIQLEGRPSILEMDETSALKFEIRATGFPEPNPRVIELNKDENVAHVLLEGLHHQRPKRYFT
T1 sequence (P26010 20-723 limits assumed): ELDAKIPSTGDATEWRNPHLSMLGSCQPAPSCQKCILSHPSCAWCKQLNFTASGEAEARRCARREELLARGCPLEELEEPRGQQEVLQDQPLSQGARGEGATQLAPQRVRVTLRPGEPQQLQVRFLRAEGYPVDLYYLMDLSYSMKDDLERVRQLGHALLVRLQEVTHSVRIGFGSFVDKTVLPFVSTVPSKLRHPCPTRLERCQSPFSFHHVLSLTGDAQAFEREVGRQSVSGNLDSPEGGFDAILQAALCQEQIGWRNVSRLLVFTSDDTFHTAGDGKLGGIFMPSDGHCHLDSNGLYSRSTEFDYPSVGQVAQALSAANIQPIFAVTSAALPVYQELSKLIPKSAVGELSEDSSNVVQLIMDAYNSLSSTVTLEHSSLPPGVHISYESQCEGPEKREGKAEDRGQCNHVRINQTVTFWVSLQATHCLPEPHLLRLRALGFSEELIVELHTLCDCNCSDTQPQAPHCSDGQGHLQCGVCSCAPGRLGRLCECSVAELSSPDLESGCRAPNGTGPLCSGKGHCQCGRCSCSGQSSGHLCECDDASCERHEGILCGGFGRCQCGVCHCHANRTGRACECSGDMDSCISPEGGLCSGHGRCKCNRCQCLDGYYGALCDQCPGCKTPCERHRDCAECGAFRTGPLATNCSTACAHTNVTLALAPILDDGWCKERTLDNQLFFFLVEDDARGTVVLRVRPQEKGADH
Procedure, shortened: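 Competitive ELISA in which serially diluted compound was incubated with the receptor system for 2 h at room temperature to equilibrium. Wash buffer contained 1 mM MnCl2. Bound Fc-tagged partner was detected with anti-human IgG Fc-HRP and TMB.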

## CC(C)C[C@@H]1NC(=O)C2(CCCC2)NC(=O)[C@@H]2CCCN2[C@H](C(=O)NC(C)(C)C)[C@H](C)NC(=O)[C@H]([C@@H](C)O)NC(=O)[C@H](CC(=O)O)NC1=O [UM0132368-01]
Aqueous solubility assay
  Determined concentration Mean: 926.3 µM
  Determined concentration Rep 1: 926.3 µM
  Determined concentration Rep 2: 917.9 µM
  Determined concentration Rep 3: 934.3 µM
Integrin α4β7
  Selectivity ELISA: 14.9

## CC(C)C[C@@H]1NC(=O)[C@H](Cc2ccc(O)cc2)NC(=O)[C@@H]2CCCN2[C@H](C(=O)NC(C)(C)C)[C@H](C)NC(=O)[C@H]([C@@H](C)O)NC(=O)[C@H](CC(=O)O)NC1=O [UM0131995-05]
Aqueous solubility assay
  Determined concentration Mean: 898.5 µM
  Determined concentration Rep 1: 883.9 µM
  Determined concentration Rep 2: 897.3 µM
  Determined concentration Rep 3: 914.7 µM

## CC(C)C[C@@H]1NC(=O)[C@H](Cc2cscn2)NC(=O)[C@@H]2CCCN2[C@H](C(=O)NC(C)(C)C)[C@H](C)NC(=O)[C@H]([C@@H](C)O)NC(=O)[C@H](CC(=O)O)NC1=O [UM0132370-01]
Aqueous solubility assay
  Determined concentration Mean: 183.2 µM
  Determined concentration Rep 1: 187.0 µM
  Determined concentration Rep 2: 182.4 µM
  Determined concentration Rep 3: 180.2 µM

## CC(C)C[C@@H]1NC(=O)[C@@H](Cc2ccc(O)cc2)NC(=O)[C@@H]2CCCN2[C@H](C(=O)NC(C)(C)C)[C@H](C)NC(=O)[C@H]([C@@H](C)O)NC(=O)[C@H](CC(=O)O)NC1=O [UM0132375-02]
Aqueous solubility assay
  Determined concentration Mean: 954.5 µM
  Determined concentration Rep 1: 966.6 µM
  Determined concentration Rep 2: 960.0 µM
  Determined concentration Rep 3: 936.8 µM

## CC(C)C[C@@H]1NC(=O)c2cccc(c2)CNC(=O)[C@@H]2CCCN2[C@H](C(=O)NC(C)(C)C)[C@H](C)NC(=O)[C@H]([C@@H](C)O)NC(=O)[C@H](CC(=O)O)NC1=O [UM0134690-01]
Aqueous solubility assay
  Determined concentration Mean: 942.9 µM
  Determined concentration Rep 1: 957.3 µM
  Determined concentration Rep 2: 950.5 µM
  Determined concentration Rep 3: 920.8 µM
Integrin α4β7
  Selectivity ELISA: 8.7

## CC(C)C[C@@H]1NC(=O)[C@H](CCCN)NC(=O)[C@@H]2CCCN2[C@H](C(=O)NC(C)(C)C)[C@H](C)NC(=O)[C@H]([C@@H](C)O)NC(=O)[C@H](CC(=O)O)NC1=O [UM0132377-01]
Aqueous solubility assay
  Determined concentration Mean: 218.6 µM
  Determined concentration Rep 1: 225.7 µM
  Determined concentration Rep 2: 218.9 µM
  Determined concentration Rep 3: 211.2 µM

## CC(C)C[C@@H]1NC(=O)[C@H](Cc2ccc(O)cc2)NC(=O)[C@H](C)NC(=O)[C@@H]2CCCN2[C@H](C(=O)NC(C)(C)C)[C@H](C)NC(=O)[C@H]([C@@H](C)O)NC(=O)[C@H](CC(=O)O)NC1=O [UM0134830-01]
Aqueous solubility assay
  Determined concentration Mean: 1000.0 µM
  Determined concentration Rep 1: 1012.0 µM
  Determined concentration Rep 2: 1016.4 µM
  Determined concentration Rep 3: 971.7 µM

## CSCC[C@@H]1NC(=O)[C@@H]2CCCN2[C@H](C(=O)NC(C)(C)C)[C@H](C)NC(=O)[C@H]([C@@H](C)O)NC(=O)[C@H](CC(=O)O)NC(=O)[C@H](CC(C)C)NC1=O [UM0132374-01]
Aqueous solubility assay
  Determined concentration Mean: 183.1 µM
  Determined concentration Rep 1: 179.4 µM
  Determined concentration Rep 2: 184.0 µM
  Determined concentration Rep 3: 185.9 µM

## C=CCOc1ccc(C[C@@H]2NC(=O)[C@@H]3CCCN3[C@H](C(=O)NC(C)(C)C)[C@H](C)NC(=O)[C@H]([C@@H](C)O)NC(=O)[C@H](CC(=O)O)NC(=O)[C@H](CC(C)C)NC2=O)cc1 [UM0132371-01]
Aqueous solubility assay
  Determined concentration Mean: 834.5 µM
  Determined concentration Rep 1: 786.7 µM
  Determined concentration Rep 2: 837.3 µM
  Determined concentration Rep 3: 879.6 µM

## CC(C)C[C@@H]1NC(=O)[C@@H](Cc2ccncc2)NC(=O)[C@@H]2CCCN2[C@H](C(=O)NC(C)(C)C)[C@H](C)NC(=O)[C@H]([C@@H](C)O)NC(=O)[C@H](CC(=O)O)NC1=O [UM0134700-01]
Aqueous solubility assay
  Determined concentration Mean: 994.5 µM
  Determined concentration Rep 1: 1044.8 µM
  Determined concentration Rep 2: 933.2 µM
  Determined concentration Rep 3: 950.6 µM

## CC(C)C[C@@H]1NC(=O)CNC(=O)[C@H](Cc2ccc(O)cc2)NC(=O)[C@@H]2CCCN2[C@H](C(=O)NC(C)(C)C)[C@H](C)NC(=O)[C@H]([C@@H](C)O)NC(=O)[C@H](CC(=O)O)NC1=O [UM0134677-01]
Aqueous solubility assay
  Determined concentration Mean: 224.6 µM
  Determined concentration Rep 1: 225.4 µM
  Determined concentration Rep 2: 230.6 µM
  Determined concentration Rep 3: 217.8 µM

## CC(C)C[C@@H]1NC(=O)C2(Cc3ccccc3C2)NC(=O)[C@@H]2CCCN2[C@H](C(=O)NC(C)(C)C)[C@H](C)NC(=O)[C@H]([C@@H](C)O)NC(=O)[C@H](CC(=O)O)NC1=O [UM0132369-01]
Aqueous solubility assay
  Determined concentration Mean: 882.5 µM
  Determined concentration Rep 1: 874.4 µM
  Determined concentration Rep 2: 885.9 µM
  Determined concentration Rep 3: 887.3 µM
Integrin α4β7
  Selectivity ELISA: 14.4

## CC(C)C[C@@H]1NC(=O)[C@@H]2CCCN2C(=O)[C@@H]2CCCN2[C@H](C(=O)NC(C)(C)C)[C@H](C)NC(=O)[C@H]([C@@H](C)O)NC(=O)[C@H](CC(=O)O)NC1=O [UM0132366-01]
Aqueous solubility assay
  Determined concentration Mean: 467.8 µM
  Determined concentration Rep 1: 474.2 µM
  Determined concentration Rep 2: 477.4 µM
  Determined concentration Rep 3: 451.9 µM

## CC(C)C[C@@H]1NC(=O)[C@H]2CCCCN2C(=O)[C@H](Cc2ccc(-c3ccccc3)cc2)NC(=O)[C@@H]2CCCN2[C@H](C(=O)NC(C)(C)C)[C@H](C)NC(=O)[C@H]([C@@H](C)O)NC(=O)[C@H](CC(=O)O)NC1=O [Compound 138]
Integrin α4β7
  Selectivity ELISA: 5.0

## COc1cccc(-c2ccccc2C[C@@H]2NC(=O)[C@@H]3CCCN3[C@H](C(=O)NC(C)(C)C)[C@H](C)NC(=O)[C@H]([C@@H](C)O)NC(=O)[C@H](CC(=O)O)NC(=O)[C@H](CC(C)C)NC(=O)[C@H]3CCCCN3C2=O)c1 [Compound 136]
Integrin α4β7
  Selectivity ELISA: 6.6

## CC(C)C[C@@H]1NC(=O)C[C@H](CCCCN)NC(=O)[C@H](CC2CCCCC2)NC(=O)[C@@H]2CCCN2[C@H](C(=O)NC(C)(C)C)[C@H](C)NC(=O)[C@H]([C@@H](C)O)NC(=O)[C@H](CC(=O)O)NC1=O [Compound 210]
Integrin α4β7
  Selectivity ELISA: 16.0

## CCC[C@@H]1NC(=O)[C@@H]2CCCN2[C@H](C(=O)NC(C)(C)C)[C@H](C)NC(=O)[C@H]([C@@H](C)O)NC(=O)[C@H](CC(=O)O)NC(=O)[C@H](CC(C)C)NC1=O [Compound 71]
Integrin α4β7
  Selectivity ELISA: 4.4

## CC(C)C[C@@H]1NC(=O)[C@H](CCCCN)NC(=O)[C@@H]2CCCN2[C@H](C(=O)NC(C)(C)C)[C@H](C)NC(=O)[C@H]([C@@H](C)O)NC(=O)[C@H](CC(=O)O)NC1=O [UM0132376-01]
Aqueous solubility assay
  Determined concentration Mean: 962.9 µM
  Determined concentration Rep 1: 990.7 µM
  Determined concentration Rep 2: 958.6 µM
  Determined concentration Rep 3: 939.5 µM
